Assay results reported in US7691849B2, “Carboxamidine derivatives and their use in the treatment of vascular diseases” (CytRx Corporation, priority 2002, dated 2010).

Legend:
[1] = system: human umbilical vein endothelial cells (HUVEC); test: Wounding migration assay in endothelial cell culture; format: cell-based; details: wounded HUVEC monolayer, 24 hours after wounding, active agent 10^-6 M
From the text: The following compounds of the Invention are especially preferable: • 1. N-[3-(1-piperidinyl)propoxy]-pyridin-1-oxide-3-carboxamidine • 2. N-[3-(1-piperidinyl)propoxy]-pyridin-1-oxide-3-carboximidoyl chloride • 3. N-[2-hydroxy-3-(1-piperidinyl)propoxy]-N′-n-butyl-pyridin-1-oxide-4-carboxamidine • 4. N-[3-(1-oxido-1-piperidinyl)propoxy]-3-nitro-benzimidoyl-chloride dihydrate • 5. 2-chloro-N-[3-(4-oxido-4-morpholinyl)propoxy]-benzimidoyl chloride • 6. (R,S)-5,6-dihydro-5-[(1-piperidinyl)methyl]-3-(1-oxido-3-pyridyl)-4H-1,2,4-oxadiazine • 7. 5,6-dihydro-5-[(4-benzyl-1-piperidinyl)methyl]-3-(3-pyridyl)-4H-1,2,4-oxadiazine • 8. (R) or (S)-5,6-dihydro-5-[(2-oxo-1-piperidinyl)methyl]-3-(3-pyridyl)-4H-1,2,4-oxadiazine • 9. (+)-5,6-dihydro-5-[(1-piperidlnyl)methyl]-3-(1-oxido-3-pyridyl)4H-1,2,4-oxadiazine • 10. (R) or (S)-5,6-dihydro-5-[(1-oxido-1-piperidinyl)methyl]-3-(1-oxido-3-pyridyl)-4H-1,2,4-oxadiazine • 11. 5.6-dihydro-5-[(4-hydroxy-1-piperidinyl)methyl]-3-(3-pyridyl)-4H-1,2,4-oxadiazine • 12. N-[2-chloro-3-(1-piperidinly)propoxyl]-benzimidoyl chloride hydrochloride • 13. N-[2-hydroxy-3-(1-piperidinyl)propoxy]-pyridin-1-oxide-3-carboxamide • The biological effects of the compounds of the invention were tested by the following experiments: • Wounding migration assay in endothelial cell culture
The effect of the compounds of the invention on the wounded monolayers of human umbilical vein endothelial cells (HUVEC) were studied in a cell culture system (in vitro). After reaching confluence, the HUVEC cells were wounded according to the method of Yamamura et al (J. Surgical Res. 63, 349-354, 1996). The number of migrated cells were registered using computerized image analysis 24 hours after wounding in the absence and presence of the active agents under testing in a concentration of 10^−6 M. The active ingredient described in publication no. WO 98/06400, namely 5,6-dihydro-5-(1-piperidinyl)-methyl-3-(3-pyridyl)-4H-1,2,4-oxadiazine was used as reference compound.

[2] = system: thoracic aorta of SH rats; test: Vaso-relaxing effect on the thoracic aorta of SH rats treated for one month (in vitro testing of aorta rings); format: in vivo, rat; details: aorta rings contracted with 10^-6 M methoxamine
Method: In the following, we give the results of the test of blood vessel relaxing effect, performed in vitro on rat vessels, and also the morpholocial results of the thoracic aorta.
(§1) Three-month-old, genetically hypertonic (SH) Wistar Okamoto rats were treated for one month with various test compounds. Thereafter the functional and morphological tests were performed.
The Vaso-relaxing Effect of the Compounds of the Invention on the Thoracic Aorta of SH Rats (in Vitro Testing)
The test was performed by the method known from the literature [Japan J. Pharmacol., 59, 339-347 (1992)]. The SH rats were anesthetized with Nembutal (40 mg/kg, i. p.), then the thoracic aorta was removed and placed in oxygenized (95% O2+5% CO2) Krebs-Henseleit solution. The composition of the solution (mM): NaCl 118, KCl 4,7, CaCl2 2,52, MgSO4 1,64, NaHCO3 24,88, KH2PO4 1,18, glucose 5,5. The 3-mm-long aorta rings were suspended in a 20 ml organ bath of 37° C. The resting tension was 1 g, which was maintained throughout the equilibration. During the 1 hour equilibration, the medium was changed in every 20 minutes. The vessels were contracted with 10^−6 M methoxamine (approx. 80% of maximal contraction). After reaching the maximal contraction, we tested the vasodilation resulting as the effect of the acetylcholine (Ach) (10^−6-10^−4 M), which informed us about the condition of the endothelium of the vessel wall. The contraction force was measured by an isometric strain gauge (SG-01D, Experimentia Ltd), and was registered on an OH-850 polygraph (Radelkis). At this time again, 5,6-dihydro-5-(1-piperidinyi)-methyl-3-(3-pyridyl)-4H-1,2,4-oxadiazine as described in WO 98/06400 was used as a reference compound.

[3] = system: thoracic aorta of SH rats; test: Morphological testing of the thoracic aortas with electron microscopy; format: in vivo, rat; set-up: key: 1 was used to refer to cases where no regeneration was observable; 2 refers to weak; 3 to average; 4 to good; 5 to strong regeneration; details: SH rats treated one month, scale of 1 to 5, electron microscopy of thoracic aorta
Method: as §1
Morphological Testing of the Thoracic Aortas with Electron Microscopy
The test was performed according to the procedure known from the literature (Br. J. of Pharmacol., 1995; 115, 415-420). 1 mm^2 pieces of the aorta wall was cut out of the thoracic aorta of the rats, and were then fixed with 2.5% glutaraldehyde at room temperature for 2 hours. This was followed by a post-fixation with 1% osmium tetroxide for 1 hour. Afterwards, the tissue pieces were dehydrated with ethanol, and embedded in Durcupan ACM. The samples were evaluated qualitatively based on the images recorded on a Hitachi 7100 electron microscope.
On the scale, 1 was used to refer to cases where no regeneration was observable, 2 refers to weak, 3 to average, 4 to good, and 5 to strong regeneration.

Compound | number of migrated cells [1] | Degree of regeneration ([3]; 20 mg/kg p.o.) | vessel relaxing effect (vasodilation by acetylcholine) ([2]; Ach 10^-4 M, 20 mg/kg) | vessel relaxing effect (vasodilation by acetylcholine) ([2]; Ach 10^-5 M, 20 mg/kg) | vessel relaxing effect (vasodilation by acetylcholine) ([2]; Ach 10^-6 M, 20 mg/kg) | other results
O=C(NOCC(O)CN1CCCCC1)c1ccc[n+]([O-])c1 (stereo not shown) [Compound 13, N-[2-hydroxy-3-(1-piperidinyl)propoxy]-pyridin-1-oxide-3-carboxamide] | 54 cell/mm^2 | 4 | – | – | – | vessel relaxing effect (vasodilation by acetylcholine) ([2]; Ach 10^-4 M, dose not given): 95.2; vessel relaxing effect (vasodilation by acetylcholine) ([2]; Ach 10^-5 M, dose not given): 90.3; vessel relaxing effect (vasodilation by acetylcholine) ([2]; Ach 10^-6 M, dose not given): 88.4
OC1CCN(CC2CON=C(c3cccnc3)N2)CC1 (stereo not shown) [Compound 11, 5.6-dihydro-5-[(4-hydroxy-1-piperidinyl)methyl]-3-(3-pyridyl)-4H-1,2,4-oxadiazine] | 51 cell/mm^2 | – | – | – | – | vessel relaxing effect (vasodilation by acetylcholine) ([2]; Ach 10^-4 M, 10 mg/kg): 86.0; vessel relaxing effect (vasodilation by acetylcholine) ([2]; Ach 10^-5 M, 10 mg/kg): 85.1; vessel relaxing effect (vasodilation by acetylcholine) ([2]; Ach 10^-6 M, 10 mg/kg): 79.7; Degree of regeneration ([3]; 10 mg/kg p.o.): 4
c1cncc(C2=NOCC(CN3CCCCC3)N2)c1 (stereo not shown) [Reference, 5,6-dihydro-5-(1-piperidinyl)-methyl-3-(3-pyridyl)-4H-1,2,4-oxadiazine, reference compound] | 30 cell/mm^2 | – | 81.7 | 80.2 | 77.4 | –
Cl.ClC(=NOCC(Cl)CN1CCCCC1)c1ccccc1 (stereo not shown) [Compound 12, N-[2-chloro-3-(1-piperidinly)propoxyl]-benzimidoyl chloride hydrochloride] | 60 cell/mm^2 | 3 | 80.4 | 83.5 | 82.3 | –
[O-][n+]1cccc(C2=NOCC(CN3CCCCC3)N2)c1 (single isomer, unassigned; (+)) [Compound 9, (+)-5,6-dihydro-5-[(1-piperidinyl)methyl]-3-(1-oxido-3-pyridyl)-4H-1,2,4-oxadiazine] | 52 cell/mm^2 | – | – | – | – | vessel relaxing effect (vasodilation by acetylcholine) ([2]; Ach 10^-4 M, 5 mg/kg): 93.2; vessel relaxing effect (vasodilation by acetylcholine) ([2]; Ach 10^-5 M, 5 mg/kg): 87.9; vessel relaxing effect (vasodilation by acetylcholine) ([2]; Ach 10^-6 M, 5 mg/kg): 87.0; Degree of regeneration ([3]; 5 mg/kg p.o.): 5
O=C1CCCCN1CC1CON=C(c2cccnc2)N1 (single isomer, unassigned) [Compound 8, (R) or (S)-5,6-dihydro-5-[(2-oxo-1-piperidinyl)methyl]-3-(3-pyridyl)-4H-1,2,4-oxadiazine] | 48 cell/mm^2 | – | 89.2 | 88.0 | 80.3 | Degree of regeneration ([3]; 5 mg/kg p.o.): 5
O.O.O=[N+]([O-])c1cccc(C(Cl)=NOCCC[N+]2([O-])CCCCC2)c1 [Compound 4, N-[3-(1-oxido-1-piperidinyl)propoxy]-3-nitro-benzimidoyl-chloride dihydrate] | 45 cell/mm^2 | 5 | – | – | – | vessel relaxing effect (vasodilation by acetylcholine) ([2]; Ach 10^-4 M, 5 mg/kg): 88.1; vessel relaxing effect (vasodilation by acetylcholine) ([2]; Ach 10^-5 M, 5 mg/kg): 84.9; vessel relaxing effect (vasodilation by acetylcholine) ([2]; Ach 10^-6 M, 5 mg/kg): 82.5
